From US8309558B2, “Compounds for the treatment of hepatitis C” (Bristol-Myers Squibb Company, priority 2008, dated 2012)
Like-named read-outs stand apart in the source and are kept apart here.

Key:
[1] = target: T1, HCV NS5B RdRp genotype 1b (Hepatitis C virus genotype 1b, UniProt Q9WMX2); experiment: Standard HCV NS5B RdRp enzyme assay; format: biochemical; conditions: HCV NS5B RdRp genotype 1b, read-out: IC50
T1 construct: The protein was expressed with an 18 amino acid C-terminal truncation to enhance the solubility; made in house; host or cells: E. coli BL21(DE3), pET21a vector
Method in brief: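 C-terminally truncated (18 aa) genotype 1b NS5B from E. coli, 28 nM, with 6 nM polyA template, 180 nM biotinylated oligo-dT12 primer and 3H-UTP (0.29 μM total UTP). Hepes pH 7.5 buffer with 2% DMSO; 60 min at 30° C. EDTA stop, SPA read-out; IC50 from seven concentrations by four-parameter fit.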

HCV replicon cells = experiment: HCV replicon FRET / luciferase assay (96-well plates); format: cell-based; conditions: Hepatitis C virus, HCV replicon, read-out: EC50
Method in brief: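 Replicon cells + titrated cpds, 37 °C CO2. Alamar blue for cytotoxicity, PBS rinse, then lysis reagent w/ 20 μM FRET peptide (EDANS/DABCYL), 150 mM NaCl; kinetic read ex340/em490, 20 cycles. Alt: Dual-Glo luciferase. EC50 = 50% drop in FRET/luciferase signal after background subtraction.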

T1 sequence (Q9WMX2 2420-2992): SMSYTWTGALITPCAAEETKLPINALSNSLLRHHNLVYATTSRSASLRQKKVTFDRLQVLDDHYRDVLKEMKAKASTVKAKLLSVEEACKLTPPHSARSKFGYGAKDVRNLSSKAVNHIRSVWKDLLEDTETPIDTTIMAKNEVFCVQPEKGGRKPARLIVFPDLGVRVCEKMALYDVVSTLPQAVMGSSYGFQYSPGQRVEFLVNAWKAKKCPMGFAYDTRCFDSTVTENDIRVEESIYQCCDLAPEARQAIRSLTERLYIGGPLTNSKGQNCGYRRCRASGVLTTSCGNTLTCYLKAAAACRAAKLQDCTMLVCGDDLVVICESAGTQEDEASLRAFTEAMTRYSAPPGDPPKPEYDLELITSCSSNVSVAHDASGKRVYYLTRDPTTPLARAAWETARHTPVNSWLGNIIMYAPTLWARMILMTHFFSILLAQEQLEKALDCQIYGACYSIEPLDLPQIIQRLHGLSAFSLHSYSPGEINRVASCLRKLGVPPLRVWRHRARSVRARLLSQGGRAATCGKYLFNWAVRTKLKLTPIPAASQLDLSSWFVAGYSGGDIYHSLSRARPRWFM

| SMILES | IC50 ([1]; Table 1a) [nM] | EC50 (HCV replicon cells; Table 1a) [nM] | IC50 ([1]; Table 1b) [nM] | EC50 (HCV replicon cells; Table 1b) [nM] |
| --- | --- | --- | --- | --- |
| CNC(=O)c1c(-c2ccc(F)cc2)oc2ccc(-c3cccc(C(=O)NC(C)C)c3)cc12 | < 250 | < 250 |  |  |
| CNC(=O)c1c(-c2ccc(F)cc2)oc2ccc(-c3cccc(C(=O)N[C@@H](C)c4ccc(F)cc4)c3)cc12 | < 250 | < 250 |  |  |
| CNC(=O)c1c(-c2ccc(F)cc2)oc2ccc(-c3cccc(C(=O)N[C@H](C)c4ccc(F)cc4)c3)cc12 | < 250 | < 250 |  |  |
| CNC(=O)c1c(-c2ccc(F)cc2)oc2ccc(-c3cccc(C(=O)NC(C)(C)c4ccc(F)cc4)c3)cc12 | < 250 | < 250 |  |  |
| CNC(=O)c1c(-c2ccc(F)cc2)oc2ccc(-c3cccc(C(=O)NC(C)(C)c4ccccc4)c3)cc12 | < 250 | < 250 |  |  |
| CNC(=O)c1c(-c2ccc(F)cc2)oc2ccc(-c3cccc(C(=O)Nc4ccncc4)c3)cc12 | < 250 | < 250 |  |  |
| CNC(=O)c1c(-c2ccc(F)cc2)oc2ccc(-c3cccc(C(=O)Nc4ccccc4)c3)cc12 | < 250 | < 250 |  |  |
| CNC(=O)c1c(-c2ccc(F)cc2)oc2ccc(-c3cccc(C(=O)Nc4cccc(C#N)c4)c3)cc12 | 250 to 1000 | < 250 |  |  |
| CNC(=O)c1c(-c2ccc(F)cc2)oc2ccc(-c3cccc(C(=O)Nc4cnccn4)c3)cc12 | < 250 | < 250 |  |  |
| CNC(=O)c1c(-c2ccc(F)cc2)oc2ccc(-c3cccc(C(=O)Nc4ccc(OC)cc4)c3)cc12 | < 250 | < 250 |  |  |
| CNC(=O)c1c(-c2ccc(F)cc2)oc2ccc(-c3ccc(Cl)c(C(=O)NC(C)(C)c4ccccc4)c3)cc12 | < 250 | < 250 |  |  |
| CNC(=O)c1c(-c2ccc(F)cc2)oc2ccc(-c3cccc(C(=O)NC4(c5ccccc5)CCC4)c3)cc12 | < 250 | < 250 |  |  |
| CNC(=O)c1c(-c2ccc(F)cc2)oc2ccc(-c3cc(C(=O)NCC(C)C)ccc3OC)cc12 | < 250 | < 250 |  |  |
| CCCOc1ccc(C(=O)NCC(C)C)cc1-c1ccc2oc(-c3ccc(F)cc3)c(C(=O)NC)c2c1 |  |  | 1000 to 10000 | 250 to 1000 |
| CNC(=O)c1c(-c2ccc(F)cc2)oc2ccc(-c3cc(C(=O)NCC(C)C)ccc3OCCC(C)C)cc12 |  |  | > 10000 | 1000 to 10000 |
| CNC(=O)c1c(-c2ccc(F)cc2)oc2cc(NS(C)(=O)=O)c(-c3cc(C(=O)NC4(c5ccccc5)CC4)ccc3F)cc12 |  |  | < 250 | < 250 |
| CCC(NC(=O)c1ccc(F)c(-c2cc3c(C(=O)NC)c(-c4ccc(F)cc4)oc3cc2NS(C)(=O)=O)c1)c1ccccc1 (stereo not shown) |  |  | < 250 | < 250 |
| CNC(=O)c1c(-c2ccc(F)cc2)oc2ccc(-c3cccc(C(=O)NC4(c5ccccc5)CC4)c3OC)cc12 |  |  | > 10000 | > 10000 |
| CNC(=O)c1c(-c2ccc(F)cc2)oc2ccc(-c3cc(C(=O)NC4(c5ccccc5Cl)CC4)ccc3Cl)cc12 |  |  | 250 to 1000 | < 250 |
| CNC(=O)c1c(-c2ccc(F)cc2)oc2cc(N(C)S(C)(=O)=O)c(-c3cccc(C(=O)NC(C)(C)c4ccccc4)c3)cc12 |  |  | < 250 | < 250 |
| CCC(CC)(NC(=O)c1ccc(Cl)c(-c2ccc3oc(-c4ccc(F)cc4)c(C(=O)NC)c3c2)c1)c1ccccc1 |  |  | < 250 | < 250 |
| CNC(=O)c1c(-c2ccc(F)cc2)oc2cc(N)c(-c3cccc(C(=O)NCC(C)C)c3)cc12 |  |  | < 250 | < 250 |
| CNC(=O)c1c(-c2ccc(F)cc2)oc2ccc(-c3cc(C(=O)NCC(C)C)ccc3OCCOC)cc12 |  |  | 250 to 1000 | < 250 |
| CNC(=O)c1c(-c2ccc(F)cc2)oc2cc(N(CCO)S(C)(=O)=O)c(-c3cccc(C(=O)NC(C)(C)C)c3)cc12 |  |  | < 250 | < 250 |

| SMILES | IC50 ([1]; Table 1a) [nM] | EC50 (HCV replicon cells; Table 1a) [nM] | IC50 ([1]; Table 1b) [nM] | EC50 (HCV replicon cells; Table 1b) [nM] |
| --- | --- | --- | --- | --- |
| CNC(=O)c1c(-c2ccc(F)cc2)oc2cc(N(CCO)S(C)(=O)=O)c(-c3cccc(C(=O)NC4(c5ccccn5)CC4)c3)cc12 |  |  | < 250 | < 250 |
| CNC(=O)c1c(-c2ccc(F)cc2)oc2cc(N(CCO)S(C)(=O)=O)c(-c3cccc(C(=O)NC4(c5ccccc5)CC4)c3)cc12 |  |  | < 250 | < 250 |
| CNC(=O)c1c(-c2ccc(F)cc2)oc2cc(N(CCO)S(C)(=O)=O)c(-c3cccc(C(=O)NC4(c5ccc(F)cc5)CC4)c3)cc12 |  |  | < 250 | < 250 |
| CNC(=O)c1c(-c2ccc(F)cc2)oc2cc(N(CCO)S(C)(=O)=O)c(-c3cccc(C(=O)NC(C)(C)c4ccc(F)cc4)c3)cc12 |  |  | < 250 | < 250 |
| CNC(=O)c1c(-c2ccc(F)cc2)oc2ccc(-c3cc(C(=O)N4CCC5(CC4)OCc4ccccc45)ccc3Cl)cc12 |  |  | 1000 to 10000 | 1000 to 10000 |
| CNC(=O)c1c(-c2ccc(F)cc2)oc2ccc(-c3cccc(C(=O)NC4(c5ccc(Cl)cc5)CC4)c3)cc12 |  |  | < 250 | < 250 |
| CNC(=O)c1c(-c2ccc(F)cc2)oc2ccc(-c3cccc(C(=O)NC(C)(C)c4ccc(Cl)cc4)c3)cc12 |  |  | < 250 | < 250 |
| CNC(=O)c1c(-c2ccc(F)cc2)oc2ccc(-c3cccc(C(=O)NC(C)(C)c4ccncc4)c3)cc12 |  |  | < 250 | < 250 |
| CNC(=O)c1c(-c2ccc(F)cc2)oc2ccc(-c3cc(C(=O)NCC(C)C)ccc3OCCc3ccc(O)cc3)cc12 |  |  | 250 to 1000 | 250 to 1000 |
| CNC(=O)c1c(-c2ccc(F)cc2)oc2ccc(-c3cc(C(=O)NCC(C)C)ccc3OCCCn3cccc3)cc12 |  |  | 1000 to 10000 | 250 to 1000 |
| CNC(=O)c1c(-c2ccc(F)cc2)oc2ccc(-c3cc(C(=O)NCC(C)C)ccc3OCCc3ccc(Cl)cc3)cc12 |  |  | > 10000 | > 10000 |
| CNC(=O)c1c(-c2ccc(F)cc2)oc2ccc(-c3cc(C(=O)NCC(C)C)ccc3OCC(N)=O)cc12 |  |  | < 250 | < 250 |
| CNC(=O)c1c(-c2ccc(F)cc2)oc2ccc(-c3cc(C(=O)NCC(C)C)ccc3OCCCN3CCOCC3)cc12 |  |  | < 250 | < 250 |
| CNC(=O)c1c(-c2ccc(F)cc2)oc2ccc(-c3cc(C(=O)NCC(C)C)ccc3OCCN3CCOCC3)cc12 |  |  | < 250 | < 250 |
| CNC(=O)c1c(-c2ccc(F)cc2)oc2ccc(-c3cc(C(=O)NCC(C)C)ccc3OCc3ccccn3)cc12 |  |  | < 250 | < 250 |
| CNC(=O)c1c(-c2ccc(F)cc2)oc2ccc(-c3cc(C(=O)NCC(C)C)ccc3OCCN3CCCC3)cc12 |  |  | < 250 | < 250 |
| CNC(=O)c1c(-c2ccc(F)cc2)oc2ccc(-c3cc(C(=O)NCC(C)C)ccc3OCCN3CCCCC3)cc12 |  |  | 250 to 1000 | < 250 |
| CNC(=O)c1c(-c2ccc(F)cc2)oc2ccc(-c3cc(C(=O)NCC(C)C)ccc3OCCc3ccccn3)cc12 |  |  | 250 to 1000 | < 250 |
| CNC(=O)c1c(-c2ccc(F)cc2)oc2ccc(-c3cc(C(=O)NCC(C)C)ccc3OCc3c[nH]c(C)n3)cc12 |  |  | < 250 | < 250 |
| CNC(=O)c1c(-c2ccc(F)cc2)oc2ccc(-c3cc(C(=O)NCC(C)C)ccc3OCc3ccc(C(F)(F)F)cn3)cc12 |  |  | > 10000 | > 10000 |
| CNC(=O)c1c(-c2ccc(F)cc2)oc2ccc(-c3cc(C(=O)NCC(C)C)ccc3OCc3c[nH]cn3)cc12 |  |  | < 250 | < 250 |
| CNC(=O)c1c(-c2ccc(F)cc2)oc2ccc(-c3cc(C(=O)NCC(C)C)ccc3OCc3cn(C)cn3)cc12 |  |  | 1000 to 10000 | 250 to 1000 |
| CCCC#CCOc1ccc(C(=O)NCC(C)C)cc1-c1ccc2oc(-c3ccc(F)cc3)c(C(=O)NC)c2c1 |  |  | 1000 to 10000 | 1000 to 10000 |
